Structures are written as SMILES. The source made the active and inactive calls. No cut-off for these calls is given here. Bounds are passed on as bounds.

Series [1] has as its target T1, High affinity 3',5'-cyclic-AMP phosphodiesterase 7A (Homo sapiens, UniProt Q13946). Briefly: Inhibition of cloned human recombinant PDE7A assessed as [3H]cAMP hydrolysis by radiometric assay.
Series [2] deals with T1, High affinity 3',5'-cyclic-AMP phosphodiesterase 7A. Description: Inhibition of cloned human recombinant PDE7A assessed as [3H]cAMP hydrolysis at 1 uM by radiometric assay.
Series [3] deals with Mus musculus. Description: Antiparkinsonian activity in C57BL/6 mouse assessed as decrease in MPTP-induced vertical rearing behavior impairment at 15 mg/kg, sc administered 30 mins on day 7 post MPTP challenge. Type of series: functional, organism-based. Also on record: dose 15 mg/kg.
The target of series [4] is Dual 3',5'-cyclic-AMP and -GMP phosphodiesterase 11A (Homo sapiens) (UniProt Q9HCR9). Briefly: Inhibition of cloned human recombinant PDE11A assessed as [3H]cAMP hydrolysis at 10 uM by radiometric assay.
Sequence of Dual 3',5'-cyclic-AMP and -GMP phosphodiesterase 11A (Homo sapiens) (Q9HCR9 whole entry, looked up): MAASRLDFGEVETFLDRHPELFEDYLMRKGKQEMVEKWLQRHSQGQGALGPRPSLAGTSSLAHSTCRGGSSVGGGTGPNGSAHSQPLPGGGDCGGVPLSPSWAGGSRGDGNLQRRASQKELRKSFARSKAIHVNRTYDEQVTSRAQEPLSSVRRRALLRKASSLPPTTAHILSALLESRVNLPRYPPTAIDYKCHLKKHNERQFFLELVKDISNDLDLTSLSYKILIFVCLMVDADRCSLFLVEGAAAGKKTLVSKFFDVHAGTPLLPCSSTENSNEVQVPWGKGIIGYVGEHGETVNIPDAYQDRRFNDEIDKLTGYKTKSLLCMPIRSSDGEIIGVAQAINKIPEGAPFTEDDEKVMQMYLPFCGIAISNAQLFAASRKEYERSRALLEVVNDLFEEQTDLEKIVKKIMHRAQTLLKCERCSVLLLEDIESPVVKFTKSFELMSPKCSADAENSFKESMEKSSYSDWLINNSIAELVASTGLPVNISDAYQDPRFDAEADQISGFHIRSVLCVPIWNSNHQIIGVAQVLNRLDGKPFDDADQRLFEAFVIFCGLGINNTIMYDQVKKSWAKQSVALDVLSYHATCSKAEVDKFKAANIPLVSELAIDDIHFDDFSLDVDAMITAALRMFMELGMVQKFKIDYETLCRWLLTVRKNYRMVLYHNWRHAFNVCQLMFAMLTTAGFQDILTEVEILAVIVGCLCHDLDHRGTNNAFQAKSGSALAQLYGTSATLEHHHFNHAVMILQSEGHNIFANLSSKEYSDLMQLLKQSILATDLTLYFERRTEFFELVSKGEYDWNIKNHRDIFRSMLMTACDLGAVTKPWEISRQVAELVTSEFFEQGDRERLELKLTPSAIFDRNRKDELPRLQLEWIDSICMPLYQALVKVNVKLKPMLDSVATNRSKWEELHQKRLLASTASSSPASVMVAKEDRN
Series [5] addresses cGMP-specific 3',5'-cyclic phosphodiesterase (Homo sapiens) (UniProt O76074). Description: Inhibition of cloned human recombinant PDE5A assessed as [3H]cAMP hydrolysis at 10 uM by radiometric assay.
The nature of series [6]: Metabolic stability in rat liver microsomes assessed as compound remaining after 60 mins. Type of series: ADME, Microsome. To be noted: read-out: Stability.
Series [7] addresses 3',5'-cyclic-AMP phosphodiesterase 7B (Homo sapiens, UniProt Q9NP56). Briefly: Inhibition of cloned human recombinant PDE7B assessed as [3H]cAMP hydrolysis by radiometric assay.
Series [8] in a line: Metabolic stability in mouse liver microsomes assessed as compound remaining after 60 mins. Type of series: ADME, Microsome. To be noted: read-out: Stability. For orientation: Microsomes from liver hold many membrane-bound enzymes, among them those of drug oxidation.
A short description of series [9]: Tmax in C57 mouse at 10 mg/kg, ip. Type of series: ADME, organism-based. Set-up: dose 10 mg/kg, route intraperitoneal. To be noted: in vivo.
Series [10] is described as follows: Drug uptake in C57 mouse brain at 10 mg/kg, ip after 30 mins. Also on record: dose 10 mg/kg, route intraperitoneal. To be noted: read-out: Drug uptake. Type of series: ADME, organism-based.
Series [11] deals with High affinity cAMP-specific and IBMX-insensitive 3',5'-cyclic phosphodiesterase 8A (Homo sapiens) (UniProt O60658). Description: Inhibition of cloned human recombinant PDE8A1 assessed as [3H]cAMP hydrolysis at 10 uM by radiometric assay.
A short description of series [12]: AUC in C57 mouse at 10 mg/kg, ip. To be noted: plasma. Set-up: dose 10 mg/kg, route intraperitoneal. Type of series: ADME, organism-based.
The target of series [13] is T2, 3',5'-cyclic-AMP phosphodiesterase 4D (Homo sapiens, UniProt Q08499). Description: Inhibition of cloned human recombinant PDE4D assessed as [3H]cAMP hydrolysis at 10 uM by radiometric assay.
T2 sequence (Q08499 whole entry): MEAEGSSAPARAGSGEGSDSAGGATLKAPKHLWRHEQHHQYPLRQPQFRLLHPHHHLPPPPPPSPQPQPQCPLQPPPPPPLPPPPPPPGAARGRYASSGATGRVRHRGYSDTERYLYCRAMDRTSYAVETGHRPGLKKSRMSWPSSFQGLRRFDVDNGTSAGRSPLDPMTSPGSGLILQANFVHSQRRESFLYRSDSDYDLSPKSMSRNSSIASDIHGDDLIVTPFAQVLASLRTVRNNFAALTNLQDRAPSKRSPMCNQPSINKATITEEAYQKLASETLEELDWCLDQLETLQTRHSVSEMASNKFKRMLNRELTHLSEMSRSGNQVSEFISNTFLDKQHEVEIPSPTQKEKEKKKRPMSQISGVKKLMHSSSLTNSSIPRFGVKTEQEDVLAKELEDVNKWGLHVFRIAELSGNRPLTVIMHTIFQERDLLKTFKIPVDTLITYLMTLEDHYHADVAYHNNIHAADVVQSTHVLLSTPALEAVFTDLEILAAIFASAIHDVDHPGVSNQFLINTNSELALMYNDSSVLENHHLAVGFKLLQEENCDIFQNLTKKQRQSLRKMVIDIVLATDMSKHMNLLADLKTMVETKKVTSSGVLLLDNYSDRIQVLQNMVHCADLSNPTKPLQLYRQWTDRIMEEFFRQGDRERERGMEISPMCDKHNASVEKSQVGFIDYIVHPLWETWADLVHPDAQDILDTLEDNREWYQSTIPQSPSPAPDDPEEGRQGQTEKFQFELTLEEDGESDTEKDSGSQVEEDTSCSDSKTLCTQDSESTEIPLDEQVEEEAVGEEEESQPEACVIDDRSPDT
Series [14] in a line: Cmax in C57 mouse at 10 mg/kg, ip. Type of series: ADME, organism-based. Also on record: dose 10 mg/kg, route intraperitoneal. To be noted: in vivo.
Series [15] is described as follows: Plasma concentration in C57 mouse at 10 mg/kg, ip after 30 mins. Type of series: ADME, organism-based. Set-up: dose 10 mg/kg, route intraperitoneal.
A short description of series [16]: Ratio of drug level in brain to plasma in C57 mouse at 10 mg/kg, ip after 30 mins. Set-up: dose 10 mg/kg, route intraperitoneal. To be noted: read-out: BPR. Type of series: ADME, organism-based.
Series [17] concerns the target cAMP and cAMP-inhibited cGMP 3',5'-cyclic phosphodiesterase 10A (Homo sapiens) (UniProt Q9Y233). Description: Inhibition of cloned human recombinant PDE10A assessed as [3H]cAMP hydrolysis at 10 uM by radiometric assay.
The target of series [18] is High affinity cGMP-specific 3',5'-cyclic phosphodiesterase 9A (Homo sapiens) (UniProt O76083). Briefly: Inhibition of cloned human recombinant PDE9A2 assessed as [3H]cAMP hydrolysis at 10 uM by radiometric assay.
Series [19] has as its target cGMP-inhibited 3',5'-cyclic phosphodiesterase 3A (Homo sapiens) (UniProt Q14432). Description: Inhibition of cloned human recombinant PDE3A assessed as [3H]cAMP hydrolysis at 10 uM by radiometric assay.
Series [20] can be described thus: Metabolic stability in human liver microsomes assessed as compound remaining after 60 mins. Type of series: ADME, Microsome. To be noted: read-out: Stability.
In series [21] the target is cGMP-dependent 3',5'-cyclic phosphodiesterase (Homo sapiens) (UniProt O00408). Briefly: Inhibition of cloned human recombinant PDE2A assessed as [3H]cAMP hydrolysis at 10 uM by radiometric assay.
Sequence of cGMP-dependent 3',5'-cyclic phosphodiesterase (Homo sapiens) (O00408 whole entry): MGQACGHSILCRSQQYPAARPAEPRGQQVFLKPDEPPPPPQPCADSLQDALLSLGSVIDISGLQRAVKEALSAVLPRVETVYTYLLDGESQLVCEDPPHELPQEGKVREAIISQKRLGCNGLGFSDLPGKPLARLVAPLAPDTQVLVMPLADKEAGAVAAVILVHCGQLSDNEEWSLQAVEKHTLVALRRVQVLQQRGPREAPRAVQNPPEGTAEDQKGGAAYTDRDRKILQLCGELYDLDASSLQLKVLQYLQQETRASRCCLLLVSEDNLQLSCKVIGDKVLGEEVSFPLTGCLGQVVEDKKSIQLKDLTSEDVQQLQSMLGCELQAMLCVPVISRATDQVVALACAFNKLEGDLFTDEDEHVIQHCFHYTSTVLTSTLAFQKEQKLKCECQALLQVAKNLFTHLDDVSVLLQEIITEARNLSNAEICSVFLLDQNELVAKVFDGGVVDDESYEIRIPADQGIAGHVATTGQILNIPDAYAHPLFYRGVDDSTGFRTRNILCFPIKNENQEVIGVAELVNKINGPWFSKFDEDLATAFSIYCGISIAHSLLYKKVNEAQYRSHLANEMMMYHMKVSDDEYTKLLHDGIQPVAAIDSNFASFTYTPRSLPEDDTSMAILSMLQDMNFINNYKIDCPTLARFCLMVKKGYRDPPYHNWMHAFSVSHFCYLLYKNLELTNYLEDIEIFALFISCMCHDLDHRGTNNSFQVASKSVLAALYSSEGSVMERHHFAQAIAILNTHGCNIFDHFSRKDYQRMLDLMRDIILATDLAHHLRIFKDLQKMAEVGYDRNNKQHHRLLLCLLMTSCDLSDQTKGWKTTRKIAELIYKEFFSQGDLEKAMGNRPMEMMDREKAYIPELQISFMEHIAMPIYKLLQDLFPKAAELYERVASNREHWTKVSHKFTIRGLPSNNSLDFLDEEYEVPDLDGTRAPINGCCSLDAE
Series [22] concerns the target Dual specificity calcium/calmodulin-dependent 3',5'-cyclic nucleotide phosphodiesterase 1A (Homo sapiens) (UniProt P54750). Briefly: Inhibition of cloned human recombinant PDE1A assessed as [3H]cAMP hydrolysis at 10 uM by radiometric assay.
The subject of series [23] is Mus musculus. Briefly: Neurotoxicity in sc dosed C57BL/6 mouse assessed as induction of catalepsy measured at 0.5 to 1 hr. Type of series: toxicity, organism-based. To be noted: in vivo.
Series [24] deals with Mus musculus. Description: Antiparkinsonian activity in C57BL/6 mouse assessed as decrease in MPTP-induced vertical rearing behavior impairment at 12.5 mg/kg, ip administered 30 mins on day 7 post MPTP challenge. Set-up: dose 12.5 mg/kg. Type of series: functional, organism-based.
For series [25], the target named is T2, 3',5'-cyclic-AMP phosphodiesterase 4D. Description: Inhibition of cloned human recombinant PDE4D assessed as [3H]cAMP hydrolysis by radiometric assay.
The species entered for series [26] is Homo sapiens. Briefly: Selectivity ratio of IC50 for cloned human recombinant PDE4D to IC50 for cloned human recombinant PDE7B.
For series [27], the species on record is Homo sapiens. Briefly: Selectivity ratio of IC50 for cloned human recombinant PDE4D to IC50 for cloned human recombinant PDE7A.

T1 sequence (Q13946 whole entry): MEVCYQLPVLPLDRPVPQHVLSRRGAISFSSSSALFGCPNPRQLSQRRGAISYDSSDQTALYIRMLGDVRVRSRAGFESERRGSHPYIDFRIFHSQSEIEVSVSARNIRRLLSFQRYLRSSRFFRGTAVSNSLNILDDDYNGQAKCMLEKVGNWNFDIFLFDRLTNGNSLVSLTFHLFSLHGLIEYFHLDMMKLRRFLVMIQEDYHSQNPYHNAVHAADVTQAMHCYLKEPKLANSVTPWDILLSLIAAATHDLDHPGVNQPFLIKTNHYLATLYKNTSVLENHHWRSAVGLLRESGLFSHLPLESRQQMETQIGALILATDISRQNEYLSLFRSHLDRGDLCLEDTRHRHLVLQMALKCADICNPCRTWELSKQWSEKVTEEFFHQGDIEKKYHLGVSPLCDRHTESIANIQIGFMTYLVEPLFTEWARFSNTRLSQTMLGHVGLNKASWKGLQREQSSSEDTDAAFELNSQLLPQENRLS
Sequence of cGMP-inhibited 3',5'-cyclic phosphodiesterase 3A (Homo sapiens) (Q14432 whole entry): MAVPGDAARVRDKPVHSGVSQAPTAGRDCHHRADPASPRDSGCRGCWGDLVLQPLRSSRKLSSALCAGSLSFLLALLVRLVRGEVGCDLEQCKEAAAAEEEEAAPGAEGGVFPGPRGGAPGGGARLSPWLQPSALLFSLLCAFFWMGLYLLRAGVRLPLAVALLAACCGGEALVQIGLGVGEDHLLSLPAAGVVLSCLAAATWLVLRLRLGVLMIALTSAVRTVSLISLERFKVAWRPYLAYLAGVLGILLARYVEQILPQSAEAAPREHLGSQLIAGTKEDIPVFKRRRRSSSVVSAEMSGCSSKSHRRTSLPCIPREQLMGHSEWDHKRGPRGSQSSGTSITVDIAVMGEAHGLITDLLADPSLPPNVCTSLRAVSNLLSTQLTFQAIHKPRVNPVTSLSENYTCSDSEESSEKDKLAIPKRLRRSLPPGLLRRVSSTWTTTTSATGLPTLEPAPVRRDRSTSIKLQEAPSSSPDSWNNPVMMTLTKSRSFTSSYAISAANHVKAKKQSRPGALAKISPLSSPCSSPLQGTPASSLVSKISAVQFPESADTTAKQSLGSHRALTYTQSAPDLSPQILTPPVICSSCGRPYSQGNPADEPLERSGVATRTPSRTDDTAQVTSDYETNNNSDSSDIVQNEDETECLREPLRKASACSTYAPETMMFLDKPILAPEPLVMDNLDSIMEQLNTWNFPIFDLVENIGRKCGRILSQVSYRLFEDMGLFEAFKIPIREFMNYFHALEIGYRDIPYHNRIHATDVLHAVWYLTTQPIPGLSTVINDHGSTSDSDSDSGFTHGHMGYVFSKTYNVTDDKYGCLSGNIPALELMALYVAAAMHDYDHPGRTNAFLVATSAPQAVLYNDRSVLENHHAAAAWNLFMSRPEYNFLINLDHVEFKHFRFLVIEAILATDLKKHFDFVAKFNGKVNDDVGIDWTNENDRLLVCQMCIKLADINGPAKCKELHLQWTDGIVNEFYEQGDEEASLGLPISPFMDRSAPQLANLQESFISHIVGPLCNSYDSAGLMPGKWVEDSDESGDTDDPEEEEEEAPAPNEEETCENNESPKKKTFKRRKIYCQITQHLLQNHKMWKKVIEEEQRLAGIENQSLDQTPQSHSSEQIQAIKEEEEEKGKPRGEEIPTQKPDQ
Sequence of Dual specificity calcium/calmodulin-dependent 3',5'-cyclic nucleotide phosphodiesterase 1A (Homo sapiens) (P54750 whole entry): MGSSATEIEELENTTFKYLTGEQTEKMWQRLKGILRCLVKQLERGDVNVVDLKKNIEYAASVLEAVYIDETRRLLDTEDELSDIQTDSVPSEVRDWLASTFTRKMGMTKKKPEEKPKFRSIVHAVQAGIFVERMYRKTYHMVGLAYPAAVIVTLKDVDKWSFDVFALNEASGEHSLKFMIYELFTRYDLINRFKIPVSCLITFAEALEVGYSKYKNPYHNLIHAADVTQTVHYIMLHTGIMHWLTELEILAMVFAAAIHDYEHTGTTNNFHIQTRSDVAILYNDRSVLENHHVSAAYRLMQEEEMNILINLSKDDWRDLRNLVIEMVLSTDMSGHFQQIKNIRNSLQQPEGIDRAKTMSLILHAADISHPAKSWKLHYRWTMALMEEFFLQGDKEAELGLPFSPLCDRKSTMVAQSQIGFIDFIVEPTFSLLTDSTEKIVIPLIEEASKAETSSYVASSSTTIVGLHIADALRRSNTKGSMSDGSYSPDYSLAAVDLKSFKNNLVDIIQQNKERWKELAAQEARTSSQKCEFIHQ

As usually defined, the IC50 is the midpoint of a concentration-inhibition curve. On to `COc1cc(N2CC[C@@H](N)C2)ccc1-c1nc2c(C)nn(C3CCCCC3)c(=O)c2[nH]1`, for which, in series [1], the IC50 stood at 77 nM.

Turning to `COc1cc(C2CC2C(N)=O)ccc1-c1nc2c(C)nn(C3CCCCC3)c(=O)c2[nH]1` (stereo not given), in [1], the IC50 amounted to 3 nM.

Regarding `COc1cc(O[C@@H]2CCNC2)ccc1-c1nc2c(C)nn(C3CCCCC3)c(=O)c2[nH]1`, the half-maximal inhibitory concentration (IC50) in [1] was 55 nM.

Regarding `COc1cc(N2CCCC(O)CC2)ccc1-c1nc2c(C)nn(C3CCCCC3)c(=O)c2[nH]1` (stereo not given), the IC50 in [1] amounted to 33 nM.

For `COc1cc(/C=C/C(N)=O)ccc1-c1nc2c(C)nn(C3CCCCC3)c(=O)c2[nH]1`, the IC50 in [1] is 89 nM.

Usually inhibition stands for the share of the control response that was lost under treatment. Take `COc1cc(N2CCC(N)CC2)ccc1-c1nc2c(C)nn(C3CCN(C)CC3)c(=O)c2[nH]1`: the inhibition in series [2] stood at 7%.

Take `COc1cc(N2CCNC(=O)C2)ccc1-c1nc2c(C)nn(C3CCCCC3)c(=O)c2[nH]1`: the IC50 in [1] amounted to 18 nM.

As to `COc1cc(N2CCC(O)CC2)ccc1-c1nc2c(C)nn(C3CCCCC3)c(=O)c2[nH]1`, the IC50 in [1] came out at 81 nM.

For the compound `COc1cc(N2CC[C@H](N)C2)ccc1-c1nc2c(C)nn(C3CCCCC3)c(=O)c2[nH]1`, the IC50 in [1] was 80 nM.

Take `COc1cc(N2CCC(N)CC2)ccc1-c1nc2c(C)nn(C3CCCCCC3)c(=O)c2[nH]1`: the inhibition in [2] was found to be 92%. Moreover, the IC50 in [1] was 75 nM.

For the compound `COc1cc(N2CCC(O)C2)ccc1-c1nc2c(C)nn(C3CCCCC3)c(=O)c2[nH]1` (stereo not given), the half-maximal inhibitory concentration (IC50) in series [1] is 71 nM.

In the case of `COc1cc(N2CC(O)C2)ccc1-c1nc2c(C)nn(C3CCCCC3)c(=O)c2[nH]1`, in series [1], the half-maximal inhibitory concentration (IC50) amounted to 53 nM.

Take `N[C@@H](Cc1ccc(O)c(O)c1)C(=O)O`: in series [3], the outcome was Active.

The Tmax is the time at which the peak concentration occurs. The AUC is the area under the concentration-time curve, a measure of exposure. Higher therefore signals high exposure. As usually defined, the Cmax is the highest concentration seen after dosing. As to `COc1cc(N2CCC(N)CC2)ccc1-c1nc2c(C)nn(C3CCCCC3)c(=O)c2[nH]1`, the inhibition is 44% in series [4]; 32% in [5]; 6% in series [11]; 81% in series [13]; 40% in series [17]; 96% in series [2]. The inhibition came out at 9% in series [18], 2% in [19], 40% in series [21] and 16% in [22]. Besides, the remaining at 1 h came to 100% in [6], 44% in [8] and 100% in series [20]. Besides, the IC50 in [7] is 11 nM; in series [1], 27 nM. For the same compound, in series [9], the Tmax was determined as 4 h. Moreover, the concentration at 0.5 h worked out at 46 ng/g in series [10] and 451 ng/mL in series [15]. This compound returned an area under the curve (AUC) in series [12] of 2300 ng·h/mL. Further, in [14], the Cmax came out at 902 ng/mL. Besides, the Kp at 0.5 h in [16] worked out at 0.1.

Turning to `COc1cc(-c2n[nH]c(=O)o2)ccc1-c1nc2c(C)nn(C3CCCCC3)c(=O)c2[nH]1`, in series [1], the IC50 was determined as 68 nM.

Turning to `O=C(CCCN1CCC(O)(c2ccc(Cl)cc2)CC1)c1ccc(F)cc1` [HALOPERIDOL], the Activity result in series [23] was “Dose-dependent effect”.

Consider `COc1cc(CCC(N)=O)ccc1-c1nc2c(C)nn(C3CCCCC3)c(=O)c2[nH]1`, for which the IC50 in series [1] stood at 93 nM.

In the case of `CNC(=O)Nc1ccc(-c2nc3c(C)nn(C4CCCCC4)c(=O)c3[nH]2)c(OC)c1`, the IC50 in [1] was 24 nM.

Take `COc1cc(N2CCC(N)CC2)ccc1-c1nc2c(C)nn(C3CCCC3)c(=O)c2[nH]1`: the inhibition in series [2] turned out to be 89%.

For `COc1cc(N2CCNCC2)ccc1-c1nc2c(C)nn(C3CCCCC3)c(=O)c2[nH]1`, the IC50 in [1] was 104 nM.

As to `NC(CO)C(=O)NNCc1ccc(O)c(O)c1O` (stereo not given), in [24], the outcome was Active.

For `COc1cc(N2CCC(N)CC2)ccc1-c1nc2c(C)nn(Cc3ccccc3)c(=O)c2[nH]1`, the inhibition in [2] is 13%.

Consider `COc1cc(N2CCCNCC2)ccc1-c1nc2c(C)nn(C3CCCCC3)c(=O)c2[nH]1`, for which the inhibition in series [4] was determined as 24%; in series [5], 3%; in [11] it was 19%; in [13] it was 90%; in series [17], 2%; in series [18], 12%. Further, the inhibition in series [19] turned out to be 4%; in [21] it was 28%; in series [22], 33%. Further, the remaining at 1 h in series [6] amounted to 40%; in series [8], 37%; in series [20], 90%. The results for the IC50 in series [25], in series [7] and in series [1] were 2900 nM, 19 nM and 12 nM, respectively. The Tmax in series [9] was 0.25 h. In addition, the concentration at 0.5 h in series [10] came to 39 ng/g; in series [15], 446 ng/mL. Besides, the area under the curve (AUC) in [12] was found to be 1370 ng·h/mL. Moreover, the values for the Ratio IC50 in series [26] and in series [27] were over 150 and over 200, respectively. In [14], this compound registered a Cmax of 570 ng/mL. The Kp at 0.5 h in series [16] turned out to be 0.09.

For the compound `CCCCC(CC)Cn1nc(C)c2nc(-c3ccc(N4CCC(N)CC4)cc3OC)[nH]c2c1=O` (stereo not given), the inhibition in series [2] is 6%.

As for `COc1cc(-c2cn[nH]c2)ccc1-c1nc2c(C)nn(C3CCCCC3)c(=O)c2[nH]1`, in [1], the half-maximal inhibitory concentration (IC50) came out at 45 nM.

Consider `COc1cc(N2CC(N)C2)ccc1-c1nc2c(C)nn(C3CCCCC3)c(=O)c2[nH]1`, for which the IC50 in [1] was found to be 73 nM.

On to `COc1cc(N2CCCN(C(C)=O)CC2)ccc1-c1nc2c(C)nn(C3CCCCC3)c(=O)c2[nH]1`, for which the IC50 in [1] is 32 nM.

The record behind these values is ChEMBL document CHEMBL2169851, “Imidazopyridazinones as novel PDE7 inhibitors: SAR and in vivo studies in Parkinson's disease model” (Bioorg Med Chem Lett, 2012).
